From US12180207B2 (ARRAY BIOPHARMA INC., priority 2018, dated 2024) come the findings set out here.

Experiment [1] concerns the target phosphorylated FGFR3 (SEQ ID NO: 5, amino acids 449 to 759) (Homo sapiens (Human), UniProt P22607). In words: FGFR enzyme binding assay (HTRF tracer displacement), FGFR3. The conditions noted are these: 5 nM phosphorylated FGFR3, average of multiple determinations if made. In a few lines:
(§1)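 Compounds were tested for displacement of a tracer from human FGFR kinase in a time-resolved FRET binding format. After 60 minutes at 22° C, signal was read at two wavelengths and converted to percent of control, normalised between untreated wells and 1 μM reference inhibitor.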

Experiment [2] has as its target recombinant human FGFR3 (amino acids R397-T806) (Homo sapiens (Human), UniProt P22607). As to the kind of experiment: FGFR3 enzyme activity assay (LanthaScreen TR-FRET). The class given is biochemical. The conditions noted are these: 25 μM ATP, 10 min incubation at 22° C., average of multiple determinations if made, read-out: FGFR3 Enz FRET IC50. In a few lines:
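GST-HIS6-tagged human FGFR3 (R397-T806) was reacted with 100 nM Alexa Fluor 647-Poly-GT substrate and 25 μM ATP plus compound in HEPES/MgCl2/Triton buffer, pH 7.5, 2% DMSO, for 10 min at 22 °C.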

Experiment [3] addresses recombinant human FGFR2 cytoplasmic domain (amino acids 403-822) (Homo sapiens (Human), UniProt P21802). In words: FGFR2 enzyme activity assay (LanthaScreen TR-FRET). The class given is biochemical. The conditions noted are these: 15 μM ATP, 20 min incubation at 22° C., average of multiple determinations if made, read-out: FGFR2 Enz FRET IC50. In a few lines:
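His-tagged FGFR2 cytoplasmic domain ([…]) with 100 nM Alexa Fluor 647-poly-GT peptide and 15 μM ATP in HEPES/MgCl2/Triton buffer, pH 7.5, 2% DMSO, 20 min at 22 °C. EDTA-quenched, Eu-PY20 antibody added, TR-FRET read after 60 min.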

For experiment [4], the target named is T1, HEK-293 cells transfected with dox-inducible human wild type FGFR3 (Homo sapiens (Human), UniProt P22607). In words: FGFR3 pFGFR cell assay (ELISA). The class given is cell-based. The conditions noted are these: HEK-293 dox-inducible FGFR3, 1 hour compound, 100 ng/ml FGF-acidic. Here is the method: FGFR3 pFGFR Cell Assay: • HEK-293 cells transfected with dox-inducible human wild type FGFR3 (SEQ ID NO: 5) were plated in a collagen or poly-D-lysine coated 96 well flat bottom plates at 4×10^5 cells/well in complete DMEM medium containing 10% FBS and 1 μg/ml doxycycline and allowed to attach for 24 h at 37° C., 5% CO2. Cells were treated with compound using 1:3 serial dilutions with a top final concentration of 5 μM. Compound was incubated on cells for 1 hour at 37° C., 5% CO2. Cells were then stimulated with a final concentration of 100 ng/ml human FGF-acidic for 5 minutes at 37° C., 5% CO2. Medium was removed and cells were lysed with lysis buffer containing phosphatase and protease inhibitors. Phospho FGFR3 was measured by ELISA (R&D Systems cat DYC2719). The ELISA captures total FGFR3 and detects total phospho tyrosine. Optical density was measured for each well using a Versamax reader at a wavelength of 450 nm. 100 POC was determined using no test compounds and 0 POC was determined using a control compound. The POC values were fit to a 4-parameter logistic curve as a function of the concentration of the compound, and the IC50 value is the point where the curve crosses 50 POC.

Experiment [5] addresses FGFR3 (SEQ ID NO: 5, amino acids 449-759) (Homo sapiens (Human), UniProt P22607). In words: LC/MS FGFR3 kobs assay (covalent protein modification). The class given is binding. The conditions noted are these: 500 nM FGFR3, 3 μM compound. In a few lines: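 Intact-mass LC/MS tracks covalent labeling of the kinase domain over time after acid quench (0.4% formic acid). Unmodified fraction, scaled to DMSO controls, is fitted as exponential decay; kobs is reported, averaged when measured more than once.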

For experiment [6], the target named is HEK-293 cells transfected with dox-inducible human wild type FGFR1 (Homo sapiens (Human), UniProt P11362). As to the kind of experiment: FGFR1 pERK cell assay. The class given is cell-based. The conditions noted are these: HEK-293 dox-inducible FGFR1, 1 hour compound, 100 ng/ml FGF-acidic; maximum concentration 5 μM. Here is the method: (§2) FGFR1 pERK Cell Assay: • HEK-293 cells transfected with doxycycline(dox)-inducible human wild type FGFR1 (SEQ ID NO: 1) were plated in a collagen or poly-D-lysine coated 96 well flat bottom plates at 4×10^5 cells/well in complete Dulbecco's Modified Eagle Medium (DMEM) containing 10% FBS and 1 μg/ml doxycycline and allowed to attach for 24 h at 37° C., 5% CO2. Cells were treated with compound using 1:3 serial dilutions with a maximum final concentration of 5 μM. Compound was incubated on cells for 1 hour at 37° C., 5% CO2. Cells were then stimulated with a final concentration of 100 ng/ml human FGF-acidic (R&D Systems Cat number 232-FA/CF) for 5 minutes at 37° C., 5% CO2. Medium was removed, and cells were lysed with lysis buffer containing phosphatase and protease inhibitors. Phospho ERK1/2 was measured using the Meso Scale Discovery sandwich assay (Meso Scale Discovery cat. no. K151DWD). The assay captures phospho ERK1/2 and detects with a sulfo-tagged total ERK1/2 antibody. The chemiluminescent signal was read on the Sector Imager Plate reader. 100 POC was determined using no test compound and 0 POC was determined using a control compound. The POC values were fit to a 4-parameter logistic curve as a function of the concentration of the compound, and the IC50 value is the point where the curve crosses 50 POC.

Experiment [7] concerns the target T1, HEK-293 cells transfected with dox-inducible human wild type FGFR3. In words: FGFR3 pERK cell assay. The class given is cell-based. The conditions noted are these: HEK-293 dox-inducible FGFR3, 1 hour compound, 100 ng/ml FGF-acidic; maximum concentration 5 μM. Here is the method:
as §2, with “FGFR3 pERK” for “FGFR1 pERK”, “with dox-inducible” for “with doxycycline(dox)-inducible”, “type FGFR3” for “type FGFR1”, “NO: 5)” for “NO: 1)”, “complete DMEM medium” for “complete Dulbecco's Modified Eagle Medium (DMEM)”, “test compounds” for “test compound”

Experiment [8] deals with dephosphorylated FGFR1 (SEQ ID NO: 1, amino acids 458 to 765) (Homo sapiens (Human), UniProt P11362). In words: FGFR enzyme binding assay (HTRF tracer displacement), FGFR1. The conditions noted are these: 5 nM dephosphorylated FGFR1, average of multiple determinations if made. In a few lines:
as §1

Experiment [9] deals with FGFR1 (SEQ ID NO: 1, amino acids 458-765) (Homo sapiens (Human), UniProt P11362). As to the kind of experiment: LC/MS FGFR1 kobs assay (covalent protein modification). The conditions noted are these: 500 nM FGFR1, 3 μM compound. The class given is binding. Summed up: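 Covalent labeling of FGFR1 kinase domain (aa 458-765) tracked over time by intact-protein LC/MS after formic acid quench. kobs derived by fitting DMSO-normalized percent unmodified FGFR1 to an exponential decay model.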

For experiment [10], the target named is recombinant human FGFR1 catalytic domain (amino acids 308-731) (Homo sapiens (Human), UniProt P11362). In words: FGFR1 enzyme activity assay (LanthaScreen TR-FRET). The class given is biochemical. The conditions noted are these: 20 min incubation at 22° C., average of multiple determinations if made, read-out: FGFR1 Enz FRET IC50. Summed up: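 His-tagged FGFR1 kinase domain with 100 nM Alexa Fluor 647-poly-GT peptide and ATP in pH 7.5 HEPES/MgCl2 buffer with 2% DMSO, 20 min at 22 °C. Quenched with EDTA plus 2 nM Eu-PY20 antibody and read after 60 min. IC50 comes from a 4-parameter fit of percent of control.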
Sequence of recombinant human FGFR1 catalytic domain (amino acids 308-731) (P11362 other isoform, or with tags, fused parts or gaps): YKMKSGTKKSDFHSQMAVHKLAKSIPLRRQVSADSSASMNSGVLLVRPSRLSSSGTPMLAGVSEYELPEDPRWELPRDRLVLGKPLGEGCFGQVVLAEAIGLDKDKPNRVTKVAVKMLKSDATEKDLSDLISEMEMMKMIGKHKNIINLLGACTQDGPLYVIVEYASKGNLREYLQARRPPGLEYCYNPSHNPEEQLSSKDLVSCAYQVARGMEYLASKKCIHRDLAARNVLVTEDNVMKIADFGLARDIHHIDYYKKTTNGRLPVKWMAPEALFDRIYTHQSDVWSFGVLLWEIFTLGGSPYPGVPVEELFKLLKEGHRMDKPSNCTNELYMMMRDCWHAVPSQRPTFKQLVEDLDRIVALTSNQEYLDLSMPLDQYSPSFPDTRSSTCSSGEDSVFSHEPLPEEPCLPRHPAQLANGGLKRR

Sequence of recombinant human FGFR2 cytoplasmic domain (amino acids 403-822) (P21802 402-821): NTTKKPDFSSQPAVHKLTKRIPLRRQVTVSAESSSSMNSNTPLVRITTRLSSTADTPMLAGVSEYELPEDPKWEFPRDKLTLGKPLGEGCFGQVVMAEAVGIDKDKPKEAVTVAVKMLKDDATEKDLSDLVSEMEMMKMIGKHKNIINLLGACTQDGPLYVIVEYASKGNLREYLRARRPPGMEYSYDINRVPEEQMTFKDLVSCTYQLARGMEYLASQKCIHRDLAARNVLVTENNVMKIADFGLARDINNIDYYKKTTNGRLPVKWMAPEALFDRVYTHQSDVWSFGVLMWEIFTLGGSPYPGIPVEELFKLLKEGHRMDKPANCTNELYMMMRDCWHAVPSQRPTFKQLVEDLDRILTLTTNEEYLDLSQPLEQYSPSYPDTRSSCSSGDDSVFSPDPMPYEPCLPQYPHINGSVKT
T1 sequence (P22607 23-806): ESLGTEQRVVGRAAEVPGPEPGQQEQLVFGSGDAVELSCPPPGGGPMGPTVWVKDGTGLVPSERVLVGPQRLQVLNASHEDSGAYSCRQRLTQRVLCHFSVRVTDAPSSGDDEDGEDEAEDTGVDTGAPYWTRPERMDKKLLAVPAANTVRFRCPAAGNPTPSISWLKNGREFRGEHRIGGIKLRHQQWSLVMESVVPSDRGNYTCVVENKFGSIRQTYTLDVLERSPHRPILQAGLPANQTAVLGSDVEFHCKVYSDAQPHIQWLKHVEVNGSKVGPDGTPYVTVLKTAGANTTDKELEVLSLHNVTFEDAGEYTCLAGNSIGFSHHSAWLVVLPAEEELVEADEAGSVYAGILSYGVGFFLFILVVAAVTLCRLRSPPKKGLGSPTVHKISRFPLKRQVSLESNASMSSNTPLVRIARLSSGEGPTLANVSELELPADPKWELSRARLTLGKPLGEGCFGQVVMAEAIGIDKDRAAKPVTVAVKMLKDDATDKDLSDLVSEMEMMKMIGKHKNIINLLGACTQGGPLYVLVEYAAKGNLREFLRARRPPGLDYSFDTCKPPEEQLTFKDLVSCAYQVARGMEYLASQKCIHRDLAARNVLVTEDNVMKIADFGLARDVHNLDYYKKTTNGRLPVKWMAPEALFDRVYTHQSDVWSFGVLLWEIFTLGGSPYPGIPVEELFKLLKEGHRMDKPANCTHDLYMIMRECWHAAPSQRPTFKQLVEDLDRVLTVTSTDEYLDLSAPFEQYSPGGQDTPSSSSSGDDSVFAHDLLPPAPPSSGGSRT
Sequence of HEK-293 cells transfected with dox-inducible human wild type FGFR1 (P11362 22-822): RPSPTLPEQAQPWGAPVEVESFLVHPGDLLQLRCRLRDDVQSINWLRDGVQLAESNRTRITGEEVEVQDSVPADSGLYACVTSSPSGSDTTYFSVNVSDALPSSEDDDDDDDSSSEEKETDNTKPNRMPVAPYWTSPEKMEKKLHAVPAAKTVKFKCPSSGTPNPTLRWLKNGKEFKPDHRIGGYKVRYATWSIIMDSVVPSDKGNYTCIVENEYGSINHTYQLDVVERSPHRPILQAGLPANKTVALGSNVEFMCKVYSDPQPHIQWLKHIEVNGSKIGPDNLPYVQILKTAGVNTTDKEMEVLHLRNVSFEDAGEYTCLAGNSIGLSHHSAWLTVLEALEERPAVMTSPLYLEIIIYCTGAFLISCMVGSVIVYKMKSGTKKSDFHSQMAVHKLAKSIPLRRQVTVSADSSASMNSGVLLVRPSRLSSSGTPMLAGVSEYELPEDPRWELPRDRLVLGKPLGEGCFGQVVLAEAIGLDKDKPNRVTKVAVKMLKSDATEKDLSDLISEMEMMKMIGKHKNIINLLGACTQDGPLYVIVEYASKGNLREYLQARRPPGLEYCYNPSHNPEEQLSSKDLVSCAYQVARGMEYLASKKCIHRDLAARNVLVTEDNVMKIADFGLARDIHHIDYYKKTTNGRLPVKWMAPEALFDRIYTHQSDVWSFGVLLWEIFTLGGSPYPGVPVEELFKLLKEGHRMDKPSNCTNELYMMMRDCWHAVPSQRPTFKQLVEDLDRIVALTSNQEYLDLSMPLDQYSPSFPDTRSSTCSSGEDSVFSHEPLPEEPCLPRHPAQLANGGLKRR
Sequence of recombinant human FGFR3 (amino acids R397-T806) (P22607 397-806): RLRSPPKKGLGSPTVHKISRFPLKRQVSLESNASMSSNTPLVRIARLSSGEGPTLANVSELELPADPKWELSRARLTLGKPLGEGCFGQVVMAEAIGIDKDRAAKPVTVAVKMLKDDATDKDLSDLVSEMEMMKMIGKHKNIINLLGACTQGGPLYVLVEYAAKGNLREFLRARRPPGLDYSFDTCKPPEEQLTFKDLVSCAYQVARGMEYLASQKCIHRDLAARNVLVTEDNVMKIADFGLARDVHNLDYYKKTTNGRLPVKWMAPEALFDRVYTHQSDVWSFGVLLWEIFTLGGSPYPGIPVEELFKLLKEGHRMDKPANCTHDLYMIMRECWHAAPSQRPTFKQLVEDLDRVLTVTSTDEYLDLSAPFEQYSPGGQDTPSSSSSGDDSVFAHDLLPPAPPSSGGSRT
Sequence of FGFR3 (SEQ ID NO: 5, amino acids 449-759) (P22607 449-759): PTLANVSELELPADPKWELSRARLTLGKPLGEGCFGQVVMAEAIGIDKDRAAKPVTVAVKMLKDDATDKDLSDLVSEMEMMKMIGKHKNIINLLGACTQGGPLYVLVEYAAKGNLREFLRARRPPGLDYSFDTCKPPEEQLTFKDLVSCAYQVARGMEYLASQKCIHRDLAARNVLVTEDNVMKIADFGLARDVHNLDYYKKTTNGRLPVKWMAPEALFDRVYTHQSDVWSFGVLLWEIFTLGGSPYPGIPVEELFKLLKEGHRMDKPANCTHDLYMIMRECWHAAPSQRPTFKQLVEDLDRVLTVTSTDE
Sequence of phosphorylated FGFR3 (SEQ ID NO: 5, amino acids 449 to 759) (P22607 449-759): as above
Sequence of dephosphorylated FGFR1 (SEQ ID NO: 1, amino acids 458 to 765) (P11362 458-765): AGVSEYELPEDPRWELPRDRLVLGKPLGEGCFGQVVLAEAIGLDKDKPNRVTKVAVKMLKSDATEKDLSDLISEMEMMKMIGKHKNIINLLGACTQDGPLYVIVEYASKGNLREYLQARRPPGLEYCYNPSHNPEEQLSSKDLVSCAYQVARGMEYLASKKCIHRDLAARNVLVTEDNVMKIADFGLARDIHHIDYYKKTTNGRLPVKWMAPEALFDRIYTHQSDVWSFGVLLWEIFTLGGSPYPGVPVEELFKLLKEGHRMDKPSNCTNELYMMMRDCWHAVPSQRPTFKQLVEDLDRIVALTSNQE
Sequence of FGFR1 (SEQ ID NO: 1, amino acids 458-765) (P11362 458-765): as above

In the case of `C=CC(=O)N1CCC(C(=O)N2CCC(n3cc(-c4cc(OC)c5c(C#N)cnn5c4)cn3)CC2)CC1` [Example 12, 6-(1-(1-(1-acryloylpiperidine-4-carbonyl)piperidin-4-yl)-1H-pyrazol-4-yl)-4-methoxypyrazolo[1,5-a]pyridine-3-carbonitrile], the half-inhibitory concentration (IC50) in experiment [1] came out at 32 nM; in experiment [2], 3 nM; in experiment [3], 3 nM; in [4] it was 242 nM. Also, in experiment [5], the “FGFR3 Enz kobs” value was 0.00231 min⁻¹.
With `C=CC(=O)Nc1ccc(S(=O)(=O)N2CCC(n3cc(-c4cc(OC)c5c(C#N)cnn5c4)cn3)CC2)cc1` [Example 49, N-(4-((4-(4-(3-cyano-4-methoxypyrazolo[1,5-a]pyridin-6-yl)-1H-pyrazol-1-yl)piperidin-1-yl)sulfonyl)phenyl)acryl-amide (2,2,2-trifluoroacetate)], it took 20 nM to reach half-maximal inhibition in experiment [4] (IC50).
Take `C=C(F)C(=O)N1CC(C(=O)N2CCC(n3cc(-c4cc(OC)c5c(C#N)cnn5c4)cn3)CC2)C1` [Example 140, 6-(1-(1-(1-(2-fluoroacryloyl)azet-idine-3-carbonyl)piperidin-4-yl)-1H-pyrazol-4-yl)-4-methoxypyrazolo [1,5-a]pyridine-3-carbonitrile]: the IC50 in [6] is 206 nM; in experiment [7], 105 nM.
For the molecule `COc1cc(-c2cnn(C3CN(CC4CN(C(=O)/C=C/CN(C)C)C4)C3)c2)cn2ncc(C#N)c12` [Example 148], in experiment [4], the midpoint of inhibition, the IC50, lay at 351 nM.
Molecule `COc1cc(-c2cnn(C3CN(C(=O)C4CN(C(=O)/C=C/CN(C)C)C4)C3)c2)cn2ncc(C#N)c12` [Example 150] had an IC50 in experiment [4] of 2320 nM.
In the case of `C=CC(=O)N1CCC(NC(=O)c2ccc(-c3cc(OC)c4c(C#N)cnn4c3)cc2)CC1` [Example 166, N-(1-acryloylpiperidin-4-yl)-4-(3-cyano-4-methoxypyrazolo [1,5-a]pyridin-6-yl)benzamide], the IC50 in experiment [8] stood at 129 nM; in experiment [1], 48 nM; in experiment [2], 14 nM; in experiment [3], 15 nM; in experiment [10], 61 nM. Further, the “FGFR1 Enz kobs” value in experiment [9] amounted to 0.00032 min⁻¹. Also, the “FGFR3 Enz kobs” value in experiment [5] stood at 0.00177 min⁻¹.
Take `C=CC(=O)NC1CCC(NC(=O)c2ccc(-c3cc(OC)c4c(C#N)cnn4c3)cc2)CC1` (stereo not drawn) [Example 167, N-(4-acrylamido-cyclohexyl)-4-(3-cyano-4-methoxypyrazolo [1,5-a]pyridin-6-yl)benzamide]: the half-maximal inhibitory concentration (IC50) was 1120 nM in experiment [8]; 192 nM in [1]; 17 nM in experiment [2]; 18 nM in [3]; 68 nM in experiment [10]. Also, the “FGFR1 Enz kobs” value in experiment [9] was 0.00004 min⁻¹. In addition, in [5], the “FGFR3 Enz kobs” value came to 0.00039 min⁻¹.
Consider `C=CS(=O)(=O)N1CC[C@@H](C(=O)N2CCC(n3cc(-c4cc(OC)c5c(C#N)cnn5c4)cn3)CC2)C1` [Example 185], for which the IC50 came out at 4 nM in experiment [1], 3 nM in [2], 5 nM in experiment [3] and 12 nM in experiment [4]. Moreover, in experiment [5], the “FGFR3 Enz kobs” value stood at 0.06081 min⁻¹.
On to `C=CS(=O)(=O)N[C@H]1CC[C@H](C(=O)N2CCC(n3cc(-c4cc(OC)c5c(C#N)cnn5c4)cn3)CC2)CC1` [Example 187, N-((1r,4r)-4-(4-(4-(3-cyano-4-methoxypyrazolo[1,5-a]pyridin-6-yl)-1H-pyrazol-1-yl)piperidine-1-carbonyl)cyclohexyl) ethenesulfonamide], for which the IC50 in experiment [4] came out at 74 nM.
`C=CS(=O)(=O)N[C@H]1C[C@@H](C(=O)N2CCC(n3cc(-c4cc(OC)c5c(C#N)cnn5c4)cn3)CC2)C1` [Example 193, N-((1s,3s)-3-(4-(4-(3-cyano-4-methoxypyrazolo[1,5-a]pyridin-6-yl)-1H-pyrazol-1-yl)piperidine-1-carbonyl)cyclobutyl) ethenesulfonamide] registered a half-inhibitory concentration (IC50) in experiment [6] of 328 nM.
The same measure, in the same setting: the figure for `C=CS(=O)(=O)N[C@H]1C[C@H](C(=O)N2CCC(n3cc(-c4cc(OC)c5c(C#N)cnn5c4)cn3)CC2)C1` [Example 194, N-((1r,3r)-3-(4-(4-(3-cyano-4-methoxypyrazolo[1,5-a]pyridin-6-yl)-1H-pyrazol-1-yl)piperidine-1-carbonyl)cyclobutyl) ethenesulfonamide] is 401 nM.
Take `C=CS(=O)(=O)Nc1ccc(C(=O)N2CCC(n3cc(-c4cc(OC)c5c(C#N)cnn5c4)cn3)CC2)cc1` [Example 196, N-(4-(4-(4-(3-cyano-4-methoxypyrazolo[1,5-a]pyridin-6-yl)-1H-pyrazol-1-yl)piperidine-1-carbonyl)phenyl)ethenesulfonamide]: 26 nM corresponded to half-maximal inhibition in experiment [4] (IC50).
